In ChEMBL document CHEMBL5506042, “Discovery of the Clinical Candidate IDOR-1117-2520: A Potent and Selective Antagonist of CCR6 for Autoimmune Diseases” (J Med Chem, 2024):

What was measured:
[1] = Intrinsic clearance in human liver microsomes at 1 uM measured for 15 mins in presence of NADPH regenerating system measured per mg protein by LC-MS/MS analysis; type: ADME, Microsome; settings: read-out: CLH
[2] = molecular target: T1, C-C chemokine receptor type 6 (Homo sapiens, UniProt P51684); assay: Antagonist activity at human CCR6 expressed in HEK293 cells assessed as inhibition of CCL20-stimulated intracellular calcium mobilization by Fluo-8-AM based FLIPR analysis
T1 sequence (P51684 whole entry): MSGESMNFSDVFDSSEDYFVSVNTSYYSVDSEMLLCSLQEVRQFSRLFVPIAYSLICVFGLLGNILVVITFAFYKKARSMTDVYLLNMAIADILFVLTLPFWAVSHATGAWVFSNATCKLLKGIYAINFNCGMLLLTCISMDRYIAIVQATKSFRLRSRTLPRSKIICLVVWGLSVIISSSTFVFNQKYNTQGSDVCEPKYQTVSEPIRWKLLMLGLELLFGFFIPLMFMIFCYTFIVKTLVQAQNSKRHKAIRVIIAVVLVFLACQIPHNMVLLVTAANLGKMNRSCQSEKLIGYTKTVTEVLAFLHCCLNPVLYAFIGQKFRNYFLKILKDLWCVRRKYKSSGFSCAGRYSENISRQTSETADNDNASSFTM

[3] = molecular target: Voltage-gated inwardly rectifying potassium channel KCNH2 (Homo sapiens, UniProt Q12809); assay: Inhibition of hERG expressed in CHO cells assessed as inhibition of channel current at holding potential of -80 mV by QPatch assay
Sequence of Voltage-gated inwardly rectifying potassium channel KCNH2 (Q12809 whole entry): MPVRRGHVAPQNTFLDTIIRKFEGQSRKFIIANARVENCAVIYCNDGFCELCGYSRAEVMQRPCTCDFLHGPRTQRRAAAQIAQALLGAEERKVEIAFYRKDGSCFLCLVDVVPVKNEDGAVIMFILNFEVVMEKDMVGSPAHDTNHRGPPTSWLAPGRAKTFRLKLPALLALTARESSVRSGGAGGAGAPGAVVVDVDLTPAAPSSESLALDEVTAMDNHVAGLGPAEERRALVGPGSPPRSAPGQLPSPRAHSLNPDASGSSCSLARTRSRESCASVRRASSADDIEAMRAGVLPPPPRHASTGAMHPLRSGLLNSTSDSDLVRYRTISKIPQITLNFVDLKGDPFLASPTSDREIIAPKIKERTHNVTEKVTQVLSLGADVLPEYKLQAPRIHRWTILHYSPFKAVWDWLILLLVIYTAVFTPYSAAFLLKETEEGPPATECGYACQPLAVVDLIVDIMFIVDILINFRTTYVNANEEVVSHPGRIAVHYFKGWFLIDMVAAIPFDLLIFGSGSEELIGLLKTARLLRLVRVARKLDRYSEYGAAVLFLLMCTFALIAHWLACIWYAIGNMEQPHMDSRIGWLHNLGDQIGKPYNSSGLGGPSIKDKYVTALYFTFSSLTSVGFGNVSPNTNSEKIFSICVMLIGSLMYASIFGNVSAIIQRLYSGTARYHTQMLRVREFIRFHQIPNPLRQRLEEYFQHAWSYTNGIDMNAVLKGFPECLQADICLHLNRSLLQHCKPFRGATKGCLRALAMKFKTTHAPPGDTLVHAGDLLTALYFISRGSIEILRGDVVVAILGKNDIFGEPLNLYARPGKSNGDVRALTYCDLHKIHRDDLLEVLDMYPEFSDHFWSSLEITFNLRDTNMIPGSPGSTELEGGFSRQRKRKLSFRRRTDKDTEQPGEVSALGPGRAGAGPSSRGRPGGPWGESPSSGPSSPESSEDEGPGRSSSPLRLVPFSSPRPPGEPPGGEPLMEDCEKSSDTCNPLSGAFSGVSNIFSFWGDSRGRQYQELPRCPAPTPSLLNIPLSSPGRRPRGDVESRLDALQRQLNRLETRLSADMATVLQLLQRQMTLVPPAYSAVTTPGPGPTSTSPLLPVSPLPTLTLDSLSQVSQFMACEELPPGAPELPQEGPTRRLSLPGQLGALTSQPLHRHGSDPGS

[4] = Drug metabolism in human liver microsomes assessed as dGSH trapping by measuring reactive metabolite formation at 10 uM measured after 60 mins in presence of dGSH and NADPH regenerating system by LC-MS/MS analysis; type: ADME, Microsome; settings: 1 h
[5] = Cytotoxicity against human HepG2 cells assessed as reduction in cell viability incubated for 72 hrs by CellTiter-Glo assay
[6] = Dissociation constant, pKa of the compound by potentiometric titration based UV-Vis spectrophotometry
[7] = Lipophilicity, LogD of the compound in 1-Octanol/PBS at pH 7.4 by miniaturized shake flask method
HepaRG = assay: Cytotoxicity against human HepaRG cells assessed as leakage of intracellular LDH at 100 uM incubated for 24 hrs by spectrophotometry; type: toxicity, cell-based

CC(C)c1ccc([C@](O)(c2cccc(-c3noc(C(C)(O)C(F)(F)F)n3)c2)C2(C)CN(C)C2)cc1 (stereo partly specified)
microsomal CLint at […], 1 µM [1]: 15 µL/min/mg

CC(=O)N1CC(C)(C(O)(c2ccccc2)c2ccc(OC(F)(F)F)cc2)C1 (stereo unspecified)
IC50 [2]: > 20 µM | IC50 [3]: > 20 µM

CC(C)c1ccc([C@](O)(c2cncc(N3CC[C@H](C(C)(C)O)C3)c2)C2(C)CN(C)C2)cc1
Drug metabolism [4]: < 100 pmol/mg/h

CC(C)c1ccc([C@](O)(c2cncc(N3CCCC3)c2)C2(C)CN(C)C2)cc1
Drug metabolism [4]: 162 pmol/mg/h

CC(C)c1ccc([C@](O)(c2cncc(N3CC[C@H](O)C3)c2)C2(C)CN(C)C2)cc1
Drug metabolism [4]: 504 pmol/mg/h

CC(C)c1ccc([C@](O)(c2cccc(-c3noc(C4CCOCC4)n3)c2)C2(C)CN(C)C2)cc1
microsomal CLint at […], 1 µM [1]: 26 µL/min/mg | Drug metabolism [4]: 167 pmol/mg/h

CC(C)c1ccc([C@](O)(c2cncc(N3CCCC3=O)c2)C2(C)CN(C)C2)cc1
Drug metabolism [4]: < 100 pmol/mg/h

CC(C)c1ccc([C@](O)(c2cncc(N3CC[C@](C)(O)C3)c2)C2(C)CN(C)C2)cc1
Drug metabolism [4]: 392 pmol/mg/h

CC(C)c1ccc([C@](O)(c2cncc(N3C[C@@H](F)[C@@H](F)C3)c2)C2(C)CN(C)C2)cc1
Drug metabolism [4]: < 100 pmol/mg/h

CC(C)c1ccc([C@](O)(c2cnnc(N3CCCC3)c2)C2(C)CN(C)C2)cc1
microsomal CLint at […], 1 µM [1]: 475 µL/min/mg | Drug metabolism [4]: 323 pmol/mg/h

CC(C)c1ccc([C@](O)(c2cccc(-c3noc(CC(C)(C)O)n3)c2)C2(C)CN(C)C2)cc1
microsomal CLint at […], 1 µM [1]: 20 µL/min/mg

CN1CCC(C)(C(O)(c2ccccc2)c2ccc(OC(F)(F)F)cc2)C1 (stereo unspecified)
IC50 [2]: 1.44 µM

CCCC1(C(O)(c2ccccc2)c2ccc(OC(F)(F)F)cc2)CN(C)C1 (stereo unspecified)
IC50 [2]: > 20 µM

CC(C)c1ccc([C@](O)(c2cncc(N3CC4CC(C3)O4)c2)C2(C)CN(C)C2)cc1
microsomal CLint at […], 1 µM [1]: 20 µL/min/mg | Drug metabolism [4]: < 100 pmol/mg/h

CC(C)c1ccc([C@](O)(c2cccc(-c3noc(C4(O)CCC4)n3)c2)C2(C)CN(C)C2)cc1
microsomal CLint at […], 1 µM [1]: 35 µL/min/mg

CC(C)c1ccc([C@](O)(c2cncc(N3CC[C@@H](O)C3)c2)C2(C)CN(C)C2)cc1
Drug metabolism [4]: 541 pmol/mg/h

CC(C)c1ccc([C@](O)(c2cnnc(N3CC4(CC4)CC3=O)c2)C2(C)CN(C)C2)cc1
microsomal CLint at […], 1 µM [1]: < 10 µL/min/mg | Drug metabolism [4]: < 100 pmol/mg/h

CN1CC(C(O)(c2ccccc2)c2ccc(OC(F)(F)F)cc2)C1 (stereo unspecified)
IC50 [2]: 9.29 µM | IC50 [3]: 0.52 µM

CC(C)c1ccc([C@](O)(c2cncc(N3CCOCC3)c2)C2(C)CN(C)C2)cc1
microsomal CLint at […], 1 µM [1]: 138 µL/min/mg | Drug metabolism [4]: 1021 pmol/mg/h

CN1CC(C)(C(O)(c2ccc(OC(F)(F)F)cc2)c2cnnc(N3CCCC3)c2)C1 (racemic)
IC50 at 72 h [5]: > 25 µM

CC(C)COc1cccc(C(O)(c2ccc(OC(F)(F)F)cc2)C2(C)CN(C)C2)c1 (racemic)
IC50 at 72 h [5]: 10 µM

CN1CC(C)(C(O)(c2ccc(OC(F)(F)F)cc2)c2cccc(N3CCCC3)c2)C1 (racemic)
IC50 at 72 h [5]: 5 µM

COc1cccc(C(O)(c2ccc(OC(F)(F)F)cc2)C2(C)CN(C)C2)c1 (racemic)
IC50 at 72 h [5]: > 25 µM | IC50 [3]: 0.22 µM

COc1cncc(C(O)(c2ccc(OC(F)(F)F)cc2)C2(C)CN(C)C2)c1 (racemic)
IC50 at 72 h [5]: > 25 µM

CN1CC(C#N)(C(O)(c2ccc(OC(F)(F)F)cc2)c2cccc(Cl)c2)C1 (racemic)
IC50 [2]: 0.763 µM | pKa [6]: 6.4

CN1CC(F)(C(O)(c2ccc(OC(F)(F)F)cc2)c2cccc(Cl)c2)C1 (racemic)
logD [7]: > 4.1 | IC50 [3]: 0.19 µM | pKa [6]: 7.9

CN1CC(CO)(C(O)(c2ccc(OC(F)(F)F)cc2)c2cccc(Cl)c2)C1 (racemic)
IC50 [2]: 3.52 µM | logD [7]: 2.1 | IC50 [3]: 0.56 µM | pKa [6]: 9.1

CN1CC(C)(C(O)(c2ccc(OC(F)(F)F)cc2)c2ccnc(N3CCCC3)c2)C1 (racemic)
IC50 at 72 h [5]: 9.2 µM

CN1CC(O)(C(O)(c2ccc(OC(F)(F)F)cc2)c2cccc(Cl)c2)C1 (racemic)
IC50 [2]: 2.06 µM | logD [7]: 2.7 | IC50 [3]: 1.9 µM | pKa [6]: 8.8

CC(C)c1ccc(C(O)(c2cccc(N3CCCC3)n2)C2(C)CN(C)C2)cc1 (racemic)
IC50 [2]: 1.21 µM

CN1CC(C)(C(O)(c2ccc(OC(F)(F)F)cc2)c2ccccc2Cl)C1 (racemic)
IC50 [2]: 8.8 µM

CN1CC(C)(C(O)(c2ccc(Cl)cc2)c2ccc(OC(F)(F)F)cc2)C1 (racemic)
IC50 at 72 h [5]: 9.4 µM

CN1CC(C(N)=O)(C(O)(c2ccc(OC(F)(F)F)cc2)c2cccc(Cl)c2)C1 (racemic)
IC50 [2]: 1.66 µM | IC50 [3]: 3.3 µM | pKa [6]: 8.1

CCOc1cncc(C(O)(c2ccc(OC(F)(F)F)cc2)C2(C)CN(C)C2)c1 (racemic)
IC50 at 72 h [5]: > 25 µM | logD [7]: 1.9 | Activity (HepaRG): Non-Toxic

CC(C)c1ccc(C(O)(c2cccc(-c3nc(C4CCOCC4)no3)c2)C2(C)CN(C)C2)cc1 (single isomer, unassigned)
microsomal CLint at […], 1 µM [1]: 68 µL/min/mg
